Entries after “also recorded” stand apart in the source; their conditions may differ. Bridge positions count the residues as written; N and C are the ends. Ends that are not written are not given here.
Columns and labels:
hKV10.1 = test: Whole-cell patch-clamp, hKV10.1 in transiently transfected CHO cells; format: cell-based, human
Description: (§1) CHO and human embryonic kidney (HEK 293) cells were grown in DMEM-high glucose supplemented with 10% FBS, 2 mM L-glutamine, 100 U/mL penicillin-g, and 100 μg/mL streptomycin (Invitrogen) at 37 °C in a 5% CO2 and 95% air humidified atmosphere. Cells were passaged twice per week following a 5-min incubation in PBS containing 0.2 g/L EDTA (Invitrogen, Carlsbad, CA).
(§2) CHO cells (ATCC) were transiently transfected with plasmids encoding hKV1.1, hKV1.2, hKV10.1, hKCa3.1, hTRPA1, or hNaV1.7 using Lipofectamine 2000 (Invitrogen, Carlsbad, CA) following the manufacturer’s protocol, then cultured under standard conditions. The cells were co-transfected with a plasmid encoding green fluorescent protein (GFP) at a molar ratio of 10:1 except for hKV1.1, hKV1.2, and hKCa3.1 for which GFP-tagged ion channel vectors were used. Currents were recorded 24–36 h after transfection. […] HEK 293 cells stably expressing the hKv11.1 channel (hERG, hKCNH2 gene, a kind gift from H. Wulff, University of California, Davis, CA) and mKCa1.1 channel (BKCa, hKCNMA1, a kind gift from C. Beeton, Baylor College of Medicine, Houston, TX) were used. hTRPV1 channels were expressed in a stable manner in CHO cells. Transfected cells were washed twice with 2 mL of ECS (see below) and re-plated onto 35-mm polystyrene cell culture dishes (Cellstar, Greiner Bio-One). hKV1.3 currents were recorded from activated peripheral blood mononuclear cells (PBMCs, see below) 3–4 days after activation. Human veinous blood was obtained from anonymised healthy donors. […]
(§3) Conventional whole-cell patch-clamp electrophysiology was used to record ionic currents. […] Data were analysed using Prism 8 (GraphPad, CA, USA) and ClampFit 10.5 software (Molecular Devices Inc., Sunnyvale, CA). […] For hKCa3.1, hTRPA1 and hTRPV1, the reversal potential for K^+ was determined and only those currents were analysed for which the reversal potential fell into the range of the theoretical reversal potential ± 5 mV (− 86.5 ± 5 mV for KCa3.1, and 0 ± 5 mV for hTRPA1 and hTRPV1).

hKV1.1 = format: cell-based, human
Description: as §1, §2, §3

mKCa1.1 channel = format: cell-based
Description: as §1, §2, §3

hNaV1.7 = test: Whole-cell patch-clamp, hNaV1.7 in transiently transfected CHO cells; format: cell-based, human
Description: as §1
CHO cells (ATCC) were transiently transfected with plasmids encoding hKV1.1, hKV1.2, hKV10.1, hKCa3.1, hTRPA1, or hNaV1.7 using Lipofectamine 2000 (Invitrogen, Carlsbad, CA) following the manufacturer’s protocol, then cultured under standard conditions. The cells were co-transfected with a plasmid encoding green fluorescent protein (GFP) at a molar ratio of 10:1 except for hKV1.1, hKV1.2, and hKCa3.1 for which GFP-tagged ion channel vectors were used. Currents were recorded 24–36 h after transfection. […] Transfected cells were washed twice with 2 mL of ECS (see below) and re-plated onto 35-mm polystyrene cell culture dishes (Cellstar, Greiner Bio-One). hKV1.3 currents were recorded from activated peripheral blood mononuclear cells (PBMCs, see below) 3–4 days after activation. […]
Conventional whole-cell patch-clamp electrophysiology was used to record ionic currents. […] Data were analysed using Prism 8 (GraphPad, CA, USA) and ClampFit 10.5 software (Molecular Devices Inc., Sunnyvale, CA). […]

hKV1.2 = molecular target: T1, hKV1.2 (Homo sapiens, UniProt P16389); test: Whole-cell patch-clamp, hKV1.2 in transiently transfected CHO cells; format: cell-based; details: for RCF_mean (remaining current fraction, I/I0): mean
T1 construct: GFP; expressed in transfected cells; host or cells: CHO cells (ATCC), transient transfection with Lipofectamine 2000
Description: as §1
CHO cells (ATCC) were transiently transfected with plasmids encoding hKV1.1, hKV1.2, hKV10.1, hKCa3.1, hTRPA1, or hNaV1.7 using Lipofectamine 2000 (Invitrogen, Carlsbad, CA) following the manufacturer’s protocol, then cultured under standard conditions. The cells were co-transfected with a plasmid encoding green fluorescent protein (GFP) at a molar ratio of 10:1 except for hKV1.1, hKV1.2, and hKCa3.1 for which GFP-tagged ion channel vectors were used. Currents were recorded 24–36 h after transfection. […] HEK 293 cells stably expressing the hKv11.1 channel (hERG, hKCNH2 gene, a kind gift from H. Wulff, University of California, Davis, CA) and mKCa1.1 channel (BKCa, hKCNMA1, a kind gift from C. Beeton, Baylor College of Medicine, Houston, TX) were used. hTRPV1 channels were expressed in a stable manner in CHO cells. Transfected cells were washed twice with 2 mL of ECS (see below) and re-plated onto 35-mm polystyrene cell culture dishes (Cellstar, Greiner Bio-One). hKV1.3 currents were recorded from activated peripheral blood mononuclear cells (PBMCs, see below) 3–4 days after activation. Human veinous blood was obtained from anonymised healthy donors. PBMCs were isolated using Histopaque1077 (Sigma-Aldrich Hungary, Budapest, Hungary) density gradient centrifugation. Cells obtained were resuspended in RPMI 1640 medium containing 10% foetal calf serum (Sigma-Aldrich Hungary, Budapest, Hungary), 100 μg/mL penicillin, 100 μg/mL streptomycin, and 2 mM L-glutamine, seeded in a 24-well culture plate at a density of 5–6 × 10^5 cells/mL, and grown in a 5% CO2 incubator at 37 °C for 3–5 days. Phytohemagglutinin A (PHA, Sigma-Aldrich Hungary, Budapest, Hungary) was added to the medium at 10 μg/mL to amplify the KV1.3 expression. Cells were washed gently twice with 2 mL of ECS for the patch-clamp experiments.
Conventional whole-cell patch-clamp electrophysiology was used to record ionic currents. Micropipettes were pulled in four stages using a Flaming Brown automatic pipette puller (Sutter Instruments, San Rafael, CA) from Borosilicate Standard Wall with Filament aluminium–silicate glass (Harvard Apparatus Co., Holliston, MA) with tip diameters between 0.5 and 1 μm and heat polished to a tip resistance of 2–8 MΩ. All measurements were carried out by using Axopatch 200B amplifier connected to a personal computer using Axon Digidata 1550A data acquisition hardware (Molecular Devices, Sunnyvale, CA). In general, the holding potential was − 120 mV. Records were discarded when a leak at the holding potential was > 10% of the peak current at the test potential. Series resistance compensation up to 70% was used to minimise voltage errors and achieve proper voltage-clamp conditions. Experiments were performed at room temperature (20–24 °C). Data were analysed using Prism 8 (GraphPad, CA, USA) and ClampFit 10.5 software (Molecular Devices Inc., Sunnyvale, CA). Before analysis, whole-cell current traces were corrected for ohmic leakage and digitally filtered with a three-point boxcar smoothing filter. For hKCa3.1, hTRPA1 and hTRPV1, the reversal potential for K^+ was determined and only those currents were analysed for which the reversal potential fell into the range of the theoretical reversal potential ± 5 mV (− 86.5 ± 5 mV for KCa3.1, and 0 ± 5 mV for hTRPA1 and hTRPV1).

T1 sequence (P16389 whole entry): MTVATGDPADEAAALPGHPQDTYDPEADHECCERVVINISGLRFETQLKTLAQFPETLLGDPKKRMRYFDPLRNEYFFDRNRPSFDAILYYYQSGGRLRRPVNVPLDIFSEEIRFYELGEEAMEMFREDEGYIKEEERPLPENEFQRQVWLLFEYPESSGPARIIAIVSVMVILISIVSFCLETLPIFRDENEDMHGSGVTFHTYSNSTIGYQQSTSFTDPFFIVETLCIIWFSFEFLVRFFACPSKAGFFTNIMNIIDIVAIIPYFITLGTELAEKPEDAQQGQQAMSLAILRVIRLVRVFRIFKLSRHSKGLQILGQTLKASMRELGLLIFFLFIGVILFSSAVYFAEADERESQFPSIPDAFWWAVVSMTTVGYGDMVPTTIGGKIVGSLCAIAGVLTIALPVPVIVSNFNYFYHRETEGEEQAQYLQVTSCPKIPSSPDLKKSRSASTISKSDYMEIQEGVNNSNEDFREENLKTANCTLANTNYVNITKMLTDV

For “GYGKGRPGCYNHYDESICGGVIKDEHCKAGRGSRMGKFALKNCQFQCGLC (disulfide 9-47, 18-50, 27-43) [SA8]”, which “RCF_mean (remaining current fraction, I/I0)” value (hKV10.1; Kv10.1, 1000 nM SA8, mean, n = 4, SEM 0.00577385) is on record?
Its value is 0.9796.

What about the “effect on current, in words” value (hKV10.1; hKV10.1, CHO cells, 1 µM SA8) of the same sequence?
Its value is “no effect; also recorded: did not inhibit”.

What about the “RCF_mean (remaining current fraction, I/I0)” value (hKV1.1; Kv1.1, 100 nM SA8, mean, n = 4, SEM 0.0202631) of the same sequence?
The value was 1.029.

And the “effect on current, in words” value (hKV1.1; hKV1.1, CHO cells, 100 nM SA8)?
Its value is “no effect; also recorded: did not inhibit”.

What about the “RCF_mean (remaining current fraction, I/I0)” value (mKCa1.1 channel; KCa1.1, 100 nM SA8, mean, n = 4, SEM 0.0158455) of the same sequence?
The value was 1.052.

What about the “effect on current, in words” value (mKCa1.1 channel; mKCa1.1, HEK 293, 100 nM SA8) of the same sequence?
The value was “no effect; also recorded: did not inhibit”.

And the “RCF_mean (remaining current fraction, I/I0)” value (hNaV1.7; Nav1.7, 1000 nM SA8, mean, n = 5, SEM 0.022988)?
Its value is 1.02.

And the “effect on current, in words” value (hNaV1.7; hNaV1.7, CHO cells, 1 µM SA8)?
The value was “no effect; also recorded: did not inhibit”.

And the “association and dissociation rates” value (hKV1.2; 100 nM SA8, hKV1.2)?
The value was “rapid”.

What about the “reversibility of block upon washing” value (hKV1.2; 100 nM SA8, hKV1.2, inhibitor-free solution) of the same sequence?
Its value is “almost fully reversible”.

And the “time for development of equilibrium block and recovery” value (hKV1.2; 100 nM SA8, hKV1.2, recovery up to ~ 85% of control current)?
The value was ~ 1 min.

And the IC50 (hKV1.2; 0.01, 0.1, 1 and 10 µM SA8, linear least squares fit Y = 1 + slope × [toxin], n = 4, room temperature (20–24 °C), ECS pH 7.35, 0.1 mg/mL BSA, CHO cells)?
The IC50 was 40.8 ± 4.9 µM.

And the “RCF_mean (remaining current fraction, I/I0)” value (hKV1.2; Kv1.2, 10 nM SA8, n = 5, SEM 0.00976051)?
The value was 0.9869.

And the “RCF_mean (remaining current fraction, I/I0)” value (hKV1.2; Kv1.2, 100 nM SA8, n = 4, SEM 0.0156624)?
The value was 0.9412.

What about the “RCF_mean (remaining current fraction, I/I0)” value (hKV1.2; Kv1.2, 1000 nM SA8, n = 4, SEM 0.0249691) of the same sequence?
The value was 0.9151.

What about the “RCF_mean (remaining current fraction, I/I0)” value (hKV1.2; Kv1.2, 10000 nM SA8, n = 6, SEM 0.0222303) of the same sequence?
Its value is 0.772.

And the “recovery of current upon washing (of control current)” value (hKV1.2; after 100 nM SA8, hKV1.2, inhibitor-free solution)?
The value was ~ 85%.

And the “effect on current, in words” value (hKV1.2; hKV1.2, CHO cells, 100 nM)?
The value was “weak block; also recorded: modest block; also recorded: weak inhibition”.
